Assay results published in patent US8129527B2, “Analogs of dehydrophenylahistins and their therapeutic use” (Nereus Pharmacuticals, Inc., priority 2006, dated 2012).
Where two headings read alike, the source gives them in different places.

Columns and labels:
[1] = tested on: PC-3 prostatic adenocarcinoma cells; assay: Tumor cytotoxicity assay, resazurin fluorescence, 48 h (Example 6); format: cell-based, human; conditions: read-out: EC50 (nM) PC-3
Description: 10× concentrated serial dilutions of the two compounds were prepared in appropriate culture medium for final concentrations ranging from 2.0×10^−5 M to 2.0×10^−10 M. Ten μl volumes of the 10× serial dilutions were added to the test wells in triplicate and the plates returned to the incubator for 48 hours.
Following 48 hours of drug exposure 10 μl of 0.2 mg/ml resazurin (obtained from Sigma-Aldrich Chemical Co.) in Mg^2+, Ca^2+ free PBS was added to each well and the plates were returned to the incubator for 3-4 hours. […] Resazurin dye without cells was used to determine the background, which was subtracted from the data for all experimental wells. The data were analyzed using Prism software (GraphPad Software).
PC-3, a human prostate adenocarcinoma, was maintained in F12K complete medium (F12K medium supplemented with 10% FBS; 2 mM Glutamine; 1% HEPES; and Pen/Strep at 100 IU/ml and 100 µg/ml, respectively).

[2] = tested on: MES-SA (Taxol Sensitive) human uterine sarcoma; assay: Drug resistant cell line pair, cytotoxicity (Example 10B); format: cell-based; conditions: Homo sapiens, MES-SA, CsA Pretreat, Studies II-III in separate lines
Text: (§1) 1) Human Uterine Sarcoma Tumor Cell Line Pair: MES-SA (Taxol Sensitive) and MES-SA/Dx5 (Taxol Resistant).

[3] = tested on: MES-SA/Dx5 (Taxol Resistant) human uterine sarcoma; assay: as above; format: cell-based; conditions: Homo sapiens, MES-SA/Dx5, MES-SA/DX5 Resistant, CsA Pretreat; Studies II-III in separate lines
Text: as §1

[4] = tested on: MCF-7 (Taxol Sensitive) human breast carcinoma; assay: as above; format: cell-based; conditions: Homo sapiens, MCF7/Taxol, read-out: MCF-7 Sensitive IC50 nM
Text: (§2) 3). Human Breast Carcinoma Cell Line Pair: MCF-7 (Taxol Sensitive) and MCF-7/ADR (Taxol Resistant)

[5] = tested on: MCF-7/ADR (Taxol Resistant) human breast carcinoma; assay: as above; format: cell-based; conditions: Homo sapiens, NCI/ADR-RES, read-out: MCF-7/ADR Resistant IC 50 nM
Text: as §2

[6] = tested on: Jurkat cells (human T cell leukemia line); assay: DNA fragmentation (DNA laddering); format: cell-based
Text: A late stage characteristic of apoptosis is internucleosomal DNA cleavage that results in a distinctive ladder pattern that can be visualized by gel electrophoresis.

[7] = tested on: PARP in Jurkat cells; assay: Cleavage of poly(ADP-ribose)polymerase (PARP), western blotting; format: cell-based, human; conditions: 100 nM, 10 hours after exposure
Description: In order to assess the ability of these compounds to induce apoptosis in Jurkat cells, cleavage of poly(ADP-ribose)polymerase (PARP) was monitored. […] The cleavage of PARP generates a stable 89 kDa product, and this process can be easily monitored by western blotting.

[8] = tested on: MDA-231 human breast tumor; assay: MDA-231 Human Breast Tumor Orthotopic Xenograft Model (mammary fat pad); format: in vivo, nude mice; conditions: KPU-2 7.5 mg/kg ip q3dx5 with paclitaxel 16 mg/kg ip qdx5, three weeks
Description: The animals used were: female nude mice (nu/ni) (MDA-231 study) or B6D2F1 (B16-F10 studies) mice between 5 and 6 weeks of age (˜20 g, Harlan); group size was 10 mice per group unless otherwise indicated.
The cell lines used were: MDA-MB-231 human breast tumor and B16-F10 murine melanoma cells.
NPI compounds were administered as monotherapy via the intraperitoneal route at the doses indicated for the individual study; for the combination studies the selected reference chemotherapy agents were injected 15-30 min prior to the NPI compound.
Female nude mice were injected in the mammary fat pad with 2×10^6 MDA-231 cells harvested from in vitro cell culture. When the tumor size reached 5 mm×5 mm (about 14-28 days) the animals were matched into treatment and control groups. The study then proceeded as described for the HT-29 model, using paclitaxel as the standard chemotherapy agent.
In this model unless otherwise noted for the individual study, the test compounds were administered via the intraperitoneal route on Days 1, 4, 8, 11 and 15 (q3dx5); paclitaxel was administered via the intraperitoneal route on Days 1-5 (qdx5).
This model involves the placement of the human tumor tissue into the mouse mammary fat pad, a surrogate of the natural environment. In this manner the possibility of a positive effect due to a specific action on the subcutaneous vascular bed is avoided.

[9] = tested on: Aspergillus fumigatus; assay: Antifungal susceptibility testing, broth dilution (MIC/MFC); format: cell-based
Method in brief: (§3)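 Tested against two isolates per species (one for C. glabrata). After MIC, fungicidal concentration determined by plating 0.1 μl from MIC and each higher concentration.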

[10] = tested on: Candida albicans; assay: as above; format: cell-based
Method in brief: as §3

[11] = tested on: Candida glabrata; assay: as above; format: cell-based; conditions: Nakaseomyces glabratus
Method in brief: as §3

[12] = tested on: Trichophyton rubrum; assay: as above; format: cell-based; conditions: Trichophyton species
Method in brief: as §3

[13] = tested on: bovine brain microtubule protein; assay: Tubulin polymerization assay, turbidity (Example 21); format: biochemical; conditions: 5 μM in 1% DMSO
Description: Polymerization of bovine brain microtubule protein (Cytoskeleton, Inc., Denver, Colo.) was monitored by an increase in turbidity at 37° C. in microtubule buffer (80 mM PIPES, pH 6.8, 1 mM MgCl2, 1 mM EGTA, 1 mM GTP, 10% glycerol). […] Turbidity was measured as an increase in optical density at 340 nm with a thermo-controlled spectrophotometer (model 680XR microplate Reader™, Bio-Rad Laboratories).

[14] = target: c-RAF (human) (Homo sapiens, UniProt P04049); conditions: ATP 10 μM
[15] = target: JNK3 (rat) (Rattus norvegicus, UniProt P49187); conditions: ATP 10 μM
[16] = target: Lyn (mouse) (Mus musculus, UniProt P25911); conditions: ATP 10 μM
[17] = target: CDK1/Cyclin B (human) (Homo sapiens, UniProt P06493); assay: biochemical
[18] = tested on: HuVEC; assay: Action on microtubule function, α-tubulin staining; conditions: 2 μM, thirty minutes exposure

Chain of JNK3 (rat) (P49187 whole entry): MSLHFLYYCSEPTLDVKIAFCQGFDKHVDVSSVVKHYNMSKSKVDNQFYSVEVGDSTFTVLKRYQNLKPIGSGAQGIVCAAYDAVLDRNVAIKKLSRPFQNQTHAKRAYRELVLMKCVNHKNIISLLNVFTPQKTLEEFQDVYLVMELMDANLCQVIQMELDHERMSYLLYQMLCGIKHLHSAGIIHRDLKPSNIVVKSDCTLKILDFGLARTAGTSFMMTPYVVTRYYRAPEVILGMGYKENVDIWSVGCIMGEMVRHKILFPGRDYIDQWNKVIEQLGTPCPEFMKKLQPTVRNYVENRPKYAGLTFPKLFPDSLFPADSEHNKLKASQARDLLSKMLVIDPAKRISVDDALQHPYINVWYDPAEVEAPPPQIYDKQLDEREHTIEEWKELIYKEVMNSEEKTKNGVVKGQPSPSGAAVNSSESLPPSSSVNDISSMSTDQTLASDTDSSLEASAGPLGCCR
Chain of CDK1/Cyclin B (human) (P06493 whole entry): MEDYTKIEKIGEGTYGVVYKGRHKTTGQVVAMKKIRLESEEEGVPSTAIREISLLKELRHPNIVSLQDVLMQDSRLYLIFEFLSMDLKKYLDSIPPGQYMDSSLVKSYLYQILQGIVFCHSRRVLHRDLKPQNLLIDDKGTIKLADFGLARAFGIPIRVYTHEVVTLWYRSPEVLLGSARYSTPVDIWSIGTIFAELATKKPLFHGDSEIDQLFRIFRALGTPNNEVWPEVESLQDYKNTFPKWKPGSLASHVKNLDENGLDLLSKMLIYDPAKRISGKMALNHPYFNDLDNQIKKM
Chain of CDK1/Cyclin B (human) (P14635 whole entry partner): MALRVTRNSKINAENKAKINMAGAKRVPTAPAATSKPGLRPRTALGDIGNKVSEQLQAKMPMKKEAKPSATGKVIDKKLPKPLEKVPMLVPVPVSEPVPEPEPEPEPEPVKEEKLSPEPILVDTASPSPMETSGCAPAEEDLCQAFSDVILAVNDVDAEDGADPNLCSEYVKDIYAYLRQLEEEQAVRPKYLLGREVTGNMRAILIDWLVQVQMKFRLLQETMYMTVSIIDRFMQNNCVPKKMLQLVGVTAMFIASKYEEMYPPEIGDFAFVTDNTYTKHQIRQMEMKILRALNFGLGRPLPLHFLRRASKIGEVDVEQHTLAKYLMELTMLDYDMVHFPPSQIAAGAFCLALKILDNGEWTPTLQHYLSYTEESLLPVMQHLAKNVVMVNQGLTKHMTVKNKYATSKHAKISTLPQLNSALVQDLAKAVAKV
Chain of Lyn (mouse) (P25911 whole entry): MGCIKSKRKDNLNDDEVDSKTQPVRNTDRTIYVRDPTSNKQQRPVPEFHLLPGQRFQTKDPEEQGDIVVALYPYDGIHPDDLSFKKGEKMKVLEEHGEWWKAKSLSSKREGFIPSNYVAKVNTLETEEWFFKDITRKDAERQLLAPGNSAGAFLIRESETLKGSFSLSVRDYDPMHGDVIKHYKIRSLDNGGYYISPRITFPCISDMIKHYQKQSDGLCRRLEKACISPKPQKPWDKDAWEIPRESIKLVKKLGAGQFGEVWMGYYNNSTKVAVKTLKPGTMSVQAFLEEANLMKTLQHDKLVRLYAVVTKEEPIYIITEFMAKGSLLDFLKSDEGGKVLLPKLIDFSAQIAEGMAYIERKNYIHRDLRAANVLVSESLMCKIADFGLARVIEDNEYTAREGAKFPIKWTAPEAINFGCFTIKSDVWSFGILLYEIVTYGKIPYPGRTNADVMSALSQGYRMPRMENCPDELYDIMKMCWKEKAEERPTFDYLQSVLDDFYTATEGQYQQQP
Chain of c-RAF (human) (P04049 whole entry): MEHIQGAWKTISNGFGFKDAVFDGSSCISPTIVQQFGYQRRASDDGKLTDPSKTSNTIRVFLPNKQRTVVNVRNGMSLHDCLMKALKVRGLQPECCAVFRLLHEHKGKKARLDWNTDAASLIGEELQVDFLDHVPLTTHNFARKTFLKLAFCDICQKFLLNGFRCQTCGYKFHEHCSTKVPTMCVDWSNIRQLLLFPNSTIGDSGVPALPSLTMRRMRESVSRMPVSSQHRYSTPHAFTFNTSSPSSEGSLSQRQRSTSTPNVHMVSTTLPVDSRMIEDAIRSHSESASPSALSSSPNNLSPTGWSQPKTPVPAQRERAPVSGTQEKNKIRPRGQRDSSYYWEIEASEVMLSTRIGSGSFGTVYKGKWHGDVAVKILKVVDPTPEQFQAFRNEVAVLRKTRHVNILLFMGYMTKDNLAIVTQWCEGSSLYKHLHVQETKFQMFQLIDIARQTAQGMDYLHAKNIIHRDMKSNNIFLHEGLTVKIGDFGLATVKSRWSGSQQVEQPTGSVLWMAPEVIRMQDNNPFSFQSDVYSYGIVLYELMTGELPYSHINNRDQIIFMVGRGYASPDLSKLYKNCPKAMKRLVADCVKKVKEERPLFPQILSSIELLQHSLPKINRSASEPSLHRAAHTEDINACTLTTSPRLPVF

CC(C)(C)c1[nH]cnc1/C=c1\[nH]c(=O)/c(=C/c2ccccc2)[nH]c1=O [KPU-2, tBu-dehydro-PLH]
EC50 ([1]; Table 2): 1 nM | EC50 ([1]; Table 3): 1 nM | IC50 [2]: 27.4 nM | IC50 [3]: 37.8 nM | IC50 [4]: 39.6 nM | IC50 [5]: 27.4 nM | concentration inducing DNA laddering [6]: 1 nM | cleavage of PARP [7]: induced cleavage of PARP | inhibition of tumor growth [8]: significant inhibition of tumor growth | MIC ([9]; A. fumigatus isolate #2): >16 µg/mL | MIC ([9]; Aspergillus fumigatus): > 16 µg/mL | MIC ([10]; C. albicans 10231): >32 µg/mL | MIC ([10]; Candida albicans): > 32 µg/mL | MIC [11]: > 32 µg/mL | antifungal potency compared with griseofulvin [12]: equivalent in potency or in some cases more potent than griseofulvin | tubulin polymerization [13]: inhibit tubulin polymerization | IC50 [14]: 8900 nM | IC50 [15]: 6800 nM | IC50 [16]: 11100 nM | IC50 [17]: 10100 nM | microtubule depolymerization in HuVEC cells [18]: induced microtubule depolymerization
